# Experimental data as given in US6802882B2, “Nitrification inhibitors, and the use of polyacids which contain a nitrification inhibitor for the treatment of inorganic fertilizers” (BASF Aktiengesellschaft, priority 1996, dated 2004).
# How the values were obtained:
# [1] = Storage stability rapid test of treated inorganic fertilizers (loss of nitrification inhibitor); type: physicochemical; settings: on ammonium sulfate nitrate carrier fertilizer; 4 weeks at 30° C., 40 to 50% relative atmospheric humidity, approx. 1.2 m/s air velocity
# Procedure: The carrier fertilizer used was ammonium sulfate nitrate (ASN). 2 g of pyrazole were dissolved in a little water, and if desired (see Table I) the solution was mixed with a stoichiometric amount of phosphoric acid (1:1) and with from 1 to 10 g of polyacrylic acid or polyphosphoric acid. […] of the carrier fertilizer in the form of granules were prewarmed to approximately 50° C. and slowly sprayed onto a turntable with the mixture containing the pyrazole compound. To accelerate the drying, drying was carried out with hot air, either at the end of the spraying or after interruption of the spraying.
# The storage stability of the treated inorganic fertilizers was determined in a rapid test in which the nitrification-inhibited inorganic fertilizers were stored in a ventilated warming cabinet for 4 weeks at 30° C., from 40 to 50% relative atmospheric humidity and approximately 1.2 m/s air velocity. The concentration of nitrification inhibitor on the inorganic fertilizer was determined before and after storage and the loss of nitrification inhibitor determined in percent. Approximately 10 to 30 g of treated inorganic fertilizer were stored in each case. The concentration of pyrazole compound as nitrification inhibitor in this case was from 0.05% by weight to 0.2% by weight at the start of the investigation, based on the treated inorganic fertilizer.
# [2] = system: winter wheat; test: Field tests: grain produce of winter wheat; type: in vivo
# Procedure: (§1) The biological effectiveness of 4-chloro-3-methylpyrazole (4 Cl-3MP) and 3,4-dimethylpyrazole (3,4-DMP) in comparison with DCD and the control was tested in multiple field tests in different environments by means of the features “nitrate content in the basis of the stem”, “NO3— and NH4—N-content in the soil” as well as “grain produce”. The standard methods used in agricultural tests were applied to the laying-out, probing, harvesting and evaluation of the field tests. The analysis of the plant and soil samples followed standard procedures. The remaining measures undertaken in the production, e.g. plant protection, were in accordance with good agricultural practice and were applied uniformly. As a consequence of this treatment the nitrate consumption of the plants is reduced (compare NO3-content in the basis of the stem of rape plants, table 2) and the produce is enhanced (compare grain produce of winter wheat, tables 3a and 3b).
# [3] = system: rape plants; test: Field tests: NO3 amount in the basis of the stem of rape plants; type: in vivo; settings: n = 5, locations 1-5
# Procedure: as §1
# [4] = system: nitrification; test: Field tests: NO3- and NH4-N-amounts in soil; type: in vivo; settings: for Ø NH4-N amount in soil / Ø NO3-N amount in soil: n = 5, locations 1-5; for biological effectiveness (in words): field tests, results of table 1, reduced amounts of the active substance versus DCD
# Procedure: The biological effectiveness of 4-chloro-3-methylpyrazole (4 Cl-3MP) and 3,4-dimethylpyrazole (3,4-DMP) in comparison with DCD and the control was tested in multiple field tests in different environments by means of the features “nitrate content in the basis of the stem”, “NO3— and NH4—N-content in the soil” as well as “grain produce”.
# The standard methods used in agricultural tests were applied to the laying-out, probing, harvesting and evaluation of the field tests.
# The analysis of the plant and soil samples followed standard procedures. The remaining measures undertaken in the production, e.g. plant protection, were in accordance with good agricultural practice and were applied uniformly.
# [5] = system: nitrification; test: Nitrification inhibiting effect of different pyrazoles; set-up: concentration or dose not given beside the values
Compound,Loss in percent (loss of nitrification inhibitor during storage) [1] [%],Ø NO3 amount in the basis of the stem of rape plants ([3]; 2 weeks after application) [ppm],Ø NO3 amount in the basis of the stem of rape plants ([3]; 4 weeks after application) [ppm],Ø NO3 amount in the basis of the stem of rape plants ([3]; 6 weeks after application) [ppm],Ø NO3 amount in the basis of the stem of rape plants ([3]; 8 weeks after application) [ppm],Ø NH4-N amount in soil ([4]; 2 weeks after application) [kg/ha],Ø NO3-N amount in soil ([4]; 2 weeks after application) [kg/ha],Ø NH4-N amount in soil ([4]; 4 weeks after application) [kg/ha],Ø NO3-N amount in soil ([4]; 4 weeks after application) [kg/ha],Ø NH4-N amount in soil ([4]; 6 weeks after application) [kg/ha],Ø NO3-N amount in soil ([4]; 6 weeks after application) [kg/ha],Ø NH4-N amount in soil ([4]; 8 weeks after application) [kg/ha],Ø NO3-N amount in soil ([4]; 8 weeks after application) [kg/ha],% inhibition per applied amount of ammonium ([5]; column head 1) [%],% inhibition per applied amount of ammonium ([5]; column head 2) [%],% inhibition per applied amount of ammonium ([5]; column head 4) [%],% inhibition per applied amount of ammonium ([5]; column head 6) [%],% inhibition per applied amount of ammonium ([5]; column head 8) [%],other results
"Cc1cn[nH]c1C.O=P(O)(O)O [3,4-Dimethylpyrazole phosphate, 3,4-dimethylpyrazolium dihydrogen Phosphate]",31,,,,,,,,,,,,,,,,,,
"N#CN=C(N)N [DCD, reference compound]",,8036,7022,4728,4274,87,47,68,44,82,35,39,29,,,,,,grain produce of winter wheat ([2]; location 2 (lean clay)): 94.3 dt/ha; grain produce of winter wheat ([2]; location 4 (loamy sand)): 52.6 dt/ha
"Cc1nn(CO)cc1Cl [N-hydroxy-4Cl-3MP, N-hydroxymethyl-4-chloro-3-methylpyrazole]",,,,,,,,,,,,,,87,58,45,30,15,
"Cc1cn(CO)nc1C [N-hydroxyl-3,4-DMP, N-hydroxymethyl-3,4-dimethylpyrazole]",,,,,,,,,,,,,,85,54,40,31,10,

# More lines, main results first:
Loss in percent (loss of nitrification inhibitor during storage) [1] [%],Compound,Ø NO3 amount in the basis of the stem of rape plants ([3]; 2 weeks after application) [ppm],Ø NO3 amount in the basis of the stem of rape plants ([3]; 4 weeks after application) [ppm],Ø NO3 amount in the basis of the stem of rape plants ([3]; 6 weeks after application) [ppm],Ø NO3 amount in the basis of the stem of rape plants ([3]; 8 weeks after application) [ppm],Ø NH4-N amount in soil ([4]; 2 weeks after application) [kg/ha],Ø NO3-N amount in soil ([4]; 2 weeks after application) [kg/ha],Ø NH4-N amount in soil ([4]; 4 weeks after application) [kg/ha],Ø NO3-N amount in soil ([4]; 4 weeks after application) [kg/ha],Ø NH4-N amount in soil ([4]; 6 weeks after application) [kg/ha],Ø NO3-N amount in soil ([4]; 6 weeks after application) [kg/ha],Ø NH4-N amount in soil ([4]; 8 weeks after application) [kg/ha],Ø NO3-N amount in soil ([4]; 8 weeks after application) [kg/ha],% inhibition per applied amount of ammonium ([5]; column head 1) [%],% inhibition per applied amount of ammonium ([5]; column head 2) [%],% inhibition per applied amount of ammonium ([5]; column head 4) [%],% inhibition per applied amount of ammonium ([5]; column head 6) [%],% inhibition per applied amount of ammonium ([5]; column head 8) [%],other results
100,"Cc1c[nH]nc1C [3,4-Dimethylpyrazole, 3,4-dimethylpyrazole]",8105,6720,4899,4454,82,54,70,43,71,44,37,28,88,61,48,34,27,grain produce of winter wheat ([2]; location 2 (lean clay)): 97.8 dt/ha; biological effectiveness (in words) [4]: as good as or better than that of DCD
55,"Cc1cc[nH]n1.O=P(O)(O)O [3-Methylpyrazole phosphate, reference compound]",,,,,,,,,,,,,,,,,,
100,"Cc1cc[nH]n1 [3-Methylpyrazole, reference compound]",,,,,,,,,,,,,90,58,45,27,22,
92,"Cc1[nH]ncc1Cl.O=P(O)(O)O [4-Chloro-3-methylpyrazole phosphate, 4-chloro-3-methylpyrazolium dihydrogen Phosphate]",,,,,,,,,,,,,91,62,53,45,27,
100,"Cc1n[nH]cc1Cl [4-Chloro-3-methylpyrazole, 4-chloro-3-methylpyrazole]",8112,6629,4774,4276,115,61,79,50,76,39,40,28,88,66,48,32,21,grain produce of winter wheat ([2]; location 4 (loamy sand)): 56.0 dt/ha; biological effectiveness (in words) [4]: as good as or better than that of DCD
